Data taken from patent US4311689A, “Method and container for production of diagnostic scanning” (priority 1978, dated 1982).
Where a name gives a salt, the structure may show the parent alone.

Test: Bio-distribution in rats 2 hours post injection
Format: in vivo
Procedure: The complex was injected into rats which were sacrificed 2 hours post injection.

SMILES	activity excreted in the urine	activity excreted in the urine (in words)	liver retention / uptake	activity retained in the kidneys	further results
O=C(O)CN(CCN(CC(=O)O)CC(=O)O)CCN(CC(=O)O)CC(=O)O	greater than 95%	–	–	–	–
Sc1cccc2cccnc12 [8-mercapto-quinolinehydrochloride]	–	small amount	about 37%	–	blood labelling: small amount; muscle uptake: ~15%; small intestine uptake: ~20%
O=C(O)CC(O)(CC(=O)O)C(=O)O [citric acid]	over 70%	–	–	about 11%	concentration in any other organ: no significant concentration
O=C[C@H](O)[C@@H](O)[C@H](O)[C@H](O)CO [d-glucose]	–	the bulk of the injected activity	about 5%	~29%	–
O=P(O)(O)CP(=O)(O)O [methylenediphosphonic acid]	–	most of the remainder	–	–	bone uptake: about 37%
